Values joined by “and” are separate entries in the source; they are usually repeats but may differ in a detail not shown here. Equal entries are not always repeated.
Test: mn = molality of the nth substance listed, in mol/kg
Details: 100 kPa, Liquid, Vibrating tube method

N[C@@H](Cc1ccc(O)cc1)C(=O)O [3-(p-hydroxyphenyl)-L-alanine] + O
mass density
Details | 273.65 K | 274.15 K | 274.65 K | 275.15 K | 275.65 K | 276.15 K | 276.65 K | 277.15 K | 277.65 K | 278.15 K
m1 = 0.0005 | 999.883 kg/m3 | 999.909 kg/m3 | 999.932 kg/m3 | 999.95 kg/m3 | 999.963 kg/m3 | 999.972 kg/m3 | 999.98 kg/m3 | 999.979 kg/m3 | 999.978 kg/m3 | 999.972 kg/m3
m1 = 0.001 | 999.917 kg/m3 | 999.942 kg/m3 | 999.965 kg/m3 | 999.984 kg/m3 | 999.997 kg/m3 | 1000 kg/m3 | 1000.01 kg/m3 | 1000.01 kg/m3 | 1000.01 kg/m3 | 1000 kg/m3
m1 = 0.0011 | 999.943 kg/m3 | 999.97 kg/m3 | 999.993 kg/m3 | 1000.01 kg/m3 | 1000.02 kg/m3 | 1000.03 kg/m3 | 1000.04 kg/m3 | 1000.04 kg/m3 | 1000.04 kg/m3 | 1000.03 kg/m3
m1 = 0.0022 | 1000.01 kg/m3 | 1000.04 kg/m3 | 1000.06 kg/m3 | 1000.08 kg/m3 | 1000.09 kg/m3 | 1000.1 kg/m3 | 1000.11 kg/m3 | 1000.11 kg/m3 | 1000.11 kg/m3 | 1000.1 kg/m3
m1 = 0.0026 | 1000.03 kg/m3 | 1000.06 kg/m3 | 1000.08 kg/m3 | 1000.1 kg/m3 | 1000.11 kg/m3 | 1000.12 kg/m3 | 1000.13 kg/m3 | 1000.13 kg/m3 | 1000.13 kg/m3 | 1000.12 kg/m3
m1 = 0.0035 | 1000.1 kg/m3 | 1000.13 kg/m3 | 1000.15 kg/m3 | 1000.17 kg/m3 | 1000.18 kg/m3 | 1000.19 kg/m3 | 1000.19 kg/m3 | 1000.2 kg/m3 | 1000.19 kg/m3 | 1000.19 kg/m3
m1 = 0.0036 | 1000.1 kg/m3 | 1000.13 kg/m3 | 1000.15 kg/m3 | 1000.17 kg/m3 | 1000.18 kg/m3 | 1000.19 kg/m3 | 1000.2 kg/m3 | 1000.2 kg/m3 | 1000.19 kg/m3 | 1000.19 kg/m3
m1 = 0.0038 | 1000.11 kg/m3 | 1000.13 kg/m3 | 1000.15 kg/m3 | 1000.17 kg/m3 | 1000.18 kg/m3 | 1000.19 kg/m3 | 1000.2 kg/m3 | 1000.2 kg/m3 | 1000.2 kg/m3 | 1000.19 kg/m3
m1 = 0.0045 | 1000.16 kg/m3 and 1000.17 kg/m3 | 1000.18 kg/m3 and 1000.2 kg/m3 | 1000.21 kg/m3 and 1000.22 kg/m3 | 1000.23 kg/m3 and 1000.24 kg/m3 | 1000.24 kg/m3 and 1000.25 kg/m3 | 1000.25 kg/m3 | 1000.25 kg/m3 and 1000.26 kg/m3 | 1000.25 kg/m3 and 1000.26 kg/m3 | 1000.25 kg/m3 and 1000.26 kg/m3 | 1000.24 kg/m3 and 1000.25 kg/m3
m1 = 0.0047 | 1000.16 kg/m3 | 1000.19 kg/m3 | 1000.21 kg/m3 | 1000.23 kg/m3 | 1000.24 kg/m3 | 1000.25 kg/m3 | 1000.26 kg/m3 | 1000.26 kg/m3 | 1000.25 kg/m3 | 1000.25 kg/m3
m1 = 0.0053 | 1000.21 kg/m3 and 1000.22 kg/m3 | 1000.23 kg/m3 and 1000.25 kg/m3 | 1000.26 kg/m3 and 1000.27 kg/m3 | 1000.27 kg/m3 and 1000.28 kg/m3 | 1000.29 kg/m3 and 1000.3 kg/m3 | 1000.29 kg/m3 and 1000.31 kg/m3 | 1000.3 kg/m3 and 1000.31 kg/m3 | 1000.3 kg/m3 and 1000.31 kg/m3 | 1000.3 kg/m3 and 1000.31 kg/m3 | 1000.29 kg/m3 and 1000.3 kg/m3
m1 = 0.0055 | 1000.21 kg/m3 | 1000.23 kg/m3 | 1000.25 kg/m3 | 1000.27 kg/m3 | 1000.29 kg/m3 | 1000.29 kg/m3 | 1000.3 kg/m3 | 1000.3 kg/m3 | 1000.3 kg/m3 | 1000.29 kg/m3
